From PMC11503492, “Activity-Based DNA-Encoded Library Screening for Selective Inhibitors of Eukaryotic Translation” (ACS Central Science, 2024)
Entries after “also recorded” stand apart in the source; their conditions may differ.

System: PCSK9 expression in HepG2 cells
Assay: HepG2 cellular assay, PCSK9 Western blot
Assay type: cell-based
Conditions: 16 h treatment, 5 or 50 µM, triplicate, normalized to DMSO
Description: Reaction buffer (1 µL) and template (0.5 µL) were added and reaction progress was
Relative activity was cal-
450 culated using the slope of fluorescence increase over time (15–30 min post reaction initia-
Gene blocks were purchased from IDT
Digestion with Sgf I and PmeI allowed for
Sequence-verified plasmids
460 were cloned into DH5α E. coli for standard large-scale DNA plasmid preparation.
Gene blocks were purchased
Digestion with NdeI and XhoI
470 (4.5 g/L high-glucose DMEM, 2 mM L-glutamine, 10% fetal bovine serum, 1% penicillin-
Cells were lysed (100 µL RIPA buffer,
Protein lysates (24 µg) were separated by denaturing polyacrylamide
480 PCSK9 rabbit monoclonal antibody, 5% BSA in PBS-T). The PCSK9 probed membrane
HRP-labeled bands were visualized
Figure S12. […] PCSK9 expression in HepG2 cells
treated 16 h with PF846 or screening hit 8 (5 or 50 µM) or vehicle control (DMSO) was analyzed in triplicate
(also on this page, place not known: S12894 GAPDH pro m DMSO 5 μM DMSO μM 5 μM 50 μM PCSK9 PF846 hit8 50)
(1 picture or pasted object on this page, not shown here)

## Cc1cccc2ccnc(N(C(=O)[C@H]3CCCN(C(=O)c4cccc5c(C#N)c[nH]c45)C3)[C@@H]3CCCNC3)c12 [Compound 8]
  PCSK9 protein levels in HepG2 cells (in words): significantly reduced; also recorded: lower levels of endogenous PCSK9
